Marks after values point to notes of the source that are not given here.
Experiments:
[1] = system: isolated rat soleus muscles; experiment: Recovery of nerve-stimulated contractile force in isolated rat soleus nerve-muscle preparations exposed to tubocurarine; type: cell-based; details: 50 μM compound, 40 mins exposure, after 90 mins 115 nM tubocurarine
Procedure: FIG. 2. […] Force traces from a representative muscle stimulated to contract in 1) control condition before addition of neuromuscular blocking agent, 2) the force response to stimulation after 90 minutes incubation with Tubocurarine. […] The traces presented in panel A (1, 2, 3), correspond to the dotted lines in panel B, respectively.
Recovery of force is quantified as the percentage of the force prior to tubocurarine that is recovered by the compound.
The current disclosure relates to compounds that inhibit CIC-1 ion channels and increase muscle excitability and thereby improve muscle function in clinical conditions where muscle activation is failing. Such conditions result in loss of contractile function of skeletal muscle, weakness and excessive fatigue. In this series of experiments the compounds were tested for their ability to restore contractile function of isolated rat muscle when the neuromuscular transmission had been compromised akin to neuromuscular disorders.
Experimentally, soleus muscles from 4-5 week old rats were isolated with the motor nerve remaining attached. The nerve-muscle preparations were mounted in experimental setups that enabled electrical stimulation of the motor nerve. Stimulation of the motor nerve led to activation of the muscle fibres and ensuing force production that was recorded.
After mounting the nerve-muscle preparation in the experimental setup, the contractile function of the muscle was initially assessed under the control conditions (FIG. 2A). […] The experimental condition mimics the failing neuromuscular transmission in a range of neuromuscular disorders. After addition of tubocurarine the contractile force declined over the next 90 mins to 10-50% of the control force. 50 μM of the test compound was then added and the contractile force recovered despite the continued presence of tubocurarine. To quantify the ability of the compound to restore force the percentage of the initial force that was restored was determined after 40 mins of compound exposure (FIG. 2B) and the point increase is reported in Table 3.

hindlimb muscle force = experiment: In situ isometric hindlimb force in anaesthetised rats with neuromuscular transmission partially inhibited by Cisatracurium; type: in vivo; details: 47.2 mg/kg i.v., 80 Hz stimulation, Cisatracurium infusion, female Lewis rats
Procedure: Isometric hindlimb force was measured in 12-week old female Lewis rats in the presence and absence of compound.
Rats were placed under anesthesia with isoflurane (2-4%), intubated and subsequently connected to a micro ventilator (Microvent 1, Hallowell EMC, US). Two stimulation electrodes were inserted through the skin to stimulate the sciatic nerve. A small incision was made proximal to the ankle, to expose the Achilles tendon, which was tied by cotton string, and connected to a force transducer (Fort250, World Precision Instruments) with adjustable position (Vernier control). The Achilles tendon was then cut distal to the attached cotton string. […]
Muscle contractile properties were assessed by applying an electrical current (under supramaximal voltage conditions) to the nerve and recording the force generated by the muscle. The muscle was stretched until maximal force was obtained, when assessed by 2 Hz stimulation. Isometric force was measured every 30 seconds at 12 Hz (Twitch), 10 pulses, and at every 5 minutes at 80 Hz (Tetanic) for 1 second (80 pulses). […] The effect of test article was assessed on its ability to increase force generated from the stimulation pattern applied. The effect was assessed in the ability to increase force per se (tetanic, 80 Hz, stimulation), and the ratio between individual twitch peaks (12 Hz stimulation). […]

CIC-1 ion channel = target: T1, CIC-1 ion channel (Rattus norvegicus, UniProt P35524); experiment: Electrophysiological measurement (three micro-electrode Gm) of compound inhibition of CIC-1 in rat soleus muscle fibres; type: cell-based; details: whole rat soleus muscle, approx. 30° C., four increasing concentrations; mean ± spread, n = experiments; read-out: EC50 (inhibition of CIC-1 ion channel, reduction of Gm)
T1 construct: from tissue; host or cells: whole soleus muscle of 12-14 week old Wistar rats
T1 sequence (P35524 1-994): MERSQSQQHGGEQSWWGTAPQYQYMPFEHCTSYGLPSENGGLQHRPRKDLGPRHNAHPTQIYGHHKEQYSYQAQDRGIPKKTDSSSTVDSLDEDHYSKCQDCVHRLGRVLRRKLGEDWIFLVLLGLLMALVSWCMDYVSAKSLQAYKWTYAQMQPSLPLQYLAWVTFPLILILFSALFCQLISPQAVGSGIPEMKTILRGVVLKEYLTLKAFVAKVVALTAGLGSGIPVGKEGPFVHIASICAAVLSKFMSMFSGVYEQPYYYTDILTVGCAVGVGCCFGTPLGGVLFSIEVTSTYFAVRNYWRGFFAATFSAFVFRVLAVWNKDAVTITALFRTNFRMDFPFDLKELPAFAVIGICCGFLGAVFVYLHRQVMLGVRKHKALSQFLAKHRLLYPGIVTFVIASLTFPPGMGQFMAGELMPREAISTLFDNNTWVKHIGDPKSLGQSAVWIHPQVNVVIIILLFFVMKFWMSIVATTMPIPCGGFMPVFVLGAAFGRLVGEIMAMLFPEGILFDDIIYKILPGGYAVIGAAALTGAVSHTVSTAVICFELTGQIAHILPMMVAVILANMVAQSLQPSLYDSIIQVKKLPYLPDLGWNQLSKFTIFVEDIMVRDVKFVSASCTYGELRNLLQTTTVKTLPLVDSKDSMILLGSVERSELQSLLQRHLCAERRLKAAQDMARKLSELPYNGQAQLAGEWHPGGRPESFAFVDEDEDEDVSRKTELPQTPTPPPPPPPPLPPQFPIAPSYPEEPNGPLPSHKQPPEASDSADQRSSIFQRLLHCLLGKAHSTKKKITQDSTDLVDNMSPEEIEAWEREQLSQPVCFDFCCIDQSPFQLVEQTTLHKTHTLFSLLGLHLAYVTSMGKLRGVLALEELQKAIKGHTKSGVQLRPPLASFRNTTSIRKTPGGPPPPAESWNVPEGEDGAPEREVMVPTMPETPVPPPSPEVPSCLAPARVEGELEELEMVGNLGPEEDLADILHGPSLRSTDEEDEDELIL

Compound | Point increase (%) of initial force that was restored [1] | increase in tetanic force (hindlimb muscle force) [%] | EC50 (CIC-1 ion channel) [µM]
COC[C@@H](Oc1ccc(Br)cc1C1CCC1)C(=O)[O-].[Na+] [(2R)-A-6, Sodium (R)-2-(4-bromo-2-cyclobutylphenoxy)-3-methoxypropanoate] | −4.1 ± 1.4% | – | –
COC[C@H](Oc1cc(F)c(Br)cc1C1CC1)C(=O)O [Compound A-2, (2S)-2-(4-bromo-2-cyclopropyl-5-fluorophenoxy)-3-methoxypropanoic acid] | 22.3 ± 3.8% | – | –
COC[C@H](Oc1ccc(Br)cc1C1CC1)C(=O)O [Compound A-1, (2S)-2-(4-Bromo-2-cyclopropylphenoxy)-3-methoxypropanoic acid] | 36.3* % | 85 | 3.7 ± 0.2
COC[C@H](Oc1ccc(Br)cc1C1CCC1)C(=O)O [Compound A-6, (2S)-2-(4-bromo-2-cyclobutylphenoxy)-3-methoxypropanoic acid] | 35.6 ± 8.3% | – | 3.2 ± 2.1
COC[C@@H](Oc1ccc(Br)cc1C1CC1)C(=O)O (single isomer, unassigned) [(2R)-A-1] | 0.2% | – | –
